Source: patent publication US20100249068A1, “S[…] NUCLEOTIDE ANALOGS” (Alios BioPharma, Inc., priority 2009, published 2010)

Test system: stably HCV RNA-replicating cell line, AVA5 (genotype 1b, subgenomic replicon)
Assay: HCV replicon assay (intracellular HCV RNA levels by blot hybridization, normalized to β-actin RNA)
Type: cell-based
Conditions: Hepatitis C virus; AVA5 cells, HCV genotype 1b subgenomic replicon; compounds added daily for three days; HCV RNA assessed 72 hours after treatment; read-out: Activity (EC50)
Method: Antiviral activity of test compounds was assessed (Okuse, et al., Antivir. Res. 2005 65:23) in the stably HCV RNA-replicating cell line, AVA5 (genotype 1b, subgenomic replicon, Blight, et al., Sci. 2000 290:1972). Compounds were added to dividing cultures daily for three days. […] Intracellular HCV RNA levels and cytotoxicity were assessed 72 hours after treatment.
Quadruplicate cultures for HCV RNA levels and cytoxicity (on 96-well plates) were used. A total of 12 untreated control cultures, and triplicate cultures treated with α-interferon (concentrations of: 10 IU/mL, 3.3 IU/mL, 1.1 IU/mL and 0.37 IU/mL) and 2′C-Me-C (concentrations of: 30 μM, 10 μM, 3.3 μM and 1.1 μM) served as assay controls.
Intracellular HCV RNA levels were measured using a conventional blot hybridization method, in which HCV RNA levels are normalized to the levels of β-actin RNA in each individual culture (Okuse, et al., Antivir. Res. 2005 65:23). Cytotoxicity was measured using an established neutral red dye uptake assay (Korba and Gerin, Antivir. Res. 1992 19:55; Okuse, et al., Antivir. Res. 2005 65:23). HCV RNA levels in the treated cultures are expressed as a percentage of the mean levels of RNA detected in untreated cultures. The absorbance of the internalized dye at […] (A510) was used for quantitative analysis.
Compounds were dissolved in 100% tissue culture grade DMSO (Sigma, Inc.) at 10 mM. Aliquots of test compounds sufficient for one daily treatment were made in individual tubes and all material was stored at −20° C. For the test, the compounds were suspended into culture medium at room temperature, and immediately added to the cell cultures. Compounds were analyzed separately in two groups with separate assay controls. The concentrations of the test compounds were run at concentrations of 10 μM, 3.3 μM, 1.1 μM and 0.37 μM. CC50, EC50 and EC90 were determined using the concentration response curve.

`C[C@H](O)[C@H]1O[C@@H](n2ccc(N)nc2=O)[C@H](F)[C@@H]1O` and `CC(O)[C@H]1O[C@@H](n2ccc(N)nc2=O)[C@@H](F)[C@@H]1O` (stereo partly drawn) cannot be ordered by EC50: < 30 µM for the first, < 30 µM for the second.

`C[C@@H](O)[C@H]1O[C@@H](n2ccc(N)nc2=O)[C@@H](O)[C@@H]1O` and `C[C@H](O)[C@H]1O[C@@H](n2ccc(N)nc2=O)[C@@H](O)[C@@H]1O` cannot be ordered by EC50: < 5 µM for the first, < 200 µM for the second.

`CC(=O)O[C@@H](C)[C@H]1O[C@@H](n2ccc(N)nc2=O)C(F)(F)[C@@H]1OC(C)=O` and `CC(=O)Nc1ccn([C@@H]2O[C@H]([C@H](C)OC(C)=O)[C@@H](OC(C)=O)C2(F)F)c(=O)n1` cannot be ordered by EC50: < 5 µM for the first, < 5 µM for the second.

`C[C@@H](O)[C@H]1O[C@@H](n2ccc(N)nc2=O)C(F)(F)[C@@H]1O` and `C[C@H](O)[C@H]1O[C@@H](n2ccc(N)nc2=O)C(F)(F)[C@@H]1O` cannot be ordered by EC50: < 5 µM for the first, < 5 µM for the second.

`C[C@@H](O)[C@H]1O[C@@H](n2ccc3c(N)ncnc32)[C@H](O)[C@@H]1O` and `CC(O)[C@H]1O[C@@H](n2cnc3c(=O)[nH]c(N)nc32)[C@H](O)[C@@H]1O` (stereo partly drawn) cannot be ordered by EC50: < 30 µM for the first, < 200 µM for the second.

`CCC(=O)O[C@@H](C)[C@H]1O[C@@H](n2ccc(N)nc2=O)C(F)(F)[C@@H]1OC(=O)CC` and `CCC(=O)O[C@@H](C)[C@H]1O[C@@H](n2ccc(N)nc2=O)C(F)(F)[C@@H]1O` cannot be ordered by EC50: < 5 µM for the first, < 5 µM for the second.

`CC(OC(=O)c1ccccc1)[C@H]1O[C@@H](N2C=CC(N)NC2=O)[C@](C)(OC(=O)c2ccccc2)[C@@H]1OC(=O)c1ccccc1` (stereo partly drawn) and `COC(=O)[C@@H](C)N[P@](=O)(Oc1ccccc1)O[C@H](C)[C@H]1O[C@@H](n2cnc3c(N)ncnc32)[C@H](O)[C@@H]1O` cannot be ordered by EC50: < 30 µM for the first, < 5 µM for the second.

`C[C@@H](O)[C@H]1O[C@@H](n2cnc3c(N)ncnc32)[C@](C)(O)[C@@H]1O` and `CC(=O)O[C@@H](C)[C@H]1O[C@@H](n2ccc(N)nc2=O)C(F)(F)[C@@H]1O` cannot be ordered by EC50: < 30 µM for the first, < 5 µM for the second.

Same assay, conditions: Hepatitis C virus; AVA5 cells, HCV genotype 1b subgenomic replicon; compounds added daily for three days; HCV RNA assessed 72 hours after treatment; read-out: EC50

`C[C@H](O)C1O[C@@H](n2cnc3c(N)ncnc32)[C@](C)(O)[C@@H]1O` (stereo in doubt) [Compound 9, 2′,5′-C-dimethyladenosine] and `CO[C@@H]1[C@H](O)[C@@H](CO)O[C@H]1n1ccc(N)nc1=O` [Compound 8a, 2′-O-methylcytidine, reference compound] fall in the same range of EC50: 1 to 10 µM for the first, 1 to 10 µM for the second.
